Source: patent publication US5886033A, “Use of isoxazole and crotonamide derivatives for the treatment of carcinomatous disorders” (Hoechst Aktiengesellschaft, priority 1995, dated 1999)
Where a name gives a salt, the structure may show the parent alone. Read-outs that look alike come from different tables or passages of the source.

Key:
[1] = tested on: LoVo cells; assay: Inhibition of the proliferation of tumor cells (MTT test), LoVo; type: cell-based, human
Procedure: (§1) Inhibition of the proliferation of tumor cells (MTT test)
(§2) 1×10^4 cells per well are inoculated into a 96-well microtiter plate. After 24 h, the test substances are added at various concentrations. Each group consists of 4 wells, the control is only incubated with medium. After 65 h, 50 μl of MTT (3-(4,5-dimethyl-2-thiazolyl)-2,5-diphenyl-2H-tetrazolium bromide; 2.5 mg/ml in PBS) are added and, after 7 h, the supernatant is removed. The color formed by the living cells is dissolved by addition of 100 μl of dimethyl sulfoxide/well. The extinction is measured at 492 nm for each well with the aid of a Multiscan photometer 340 CC (Flow). The cell lines used are obtainable as follows from the American Type Culture Collection: HUV-EC-C is ATCC CRL 1730; A-172 is ATCC CRL 1620; L 1210 is ATCC CCL 219; LoVo is ATCC CCL 229; C 6 is ATCC CCL 107 and a rat glioblastoma cell line.
(§3) The mean value is formed from the 4 wells of a group and the IC50 values are calculated from the dose-response curve using the Software 3.0 (Erithacus Software Ltd.).

[2] = tested on: HUV-EC-C; assay: Inhibition of proliferation (MTT test), HUV-EC-C / HUVEC endothelial cells; type: cell-based, human
Procedure: as §1, §2, §3

[3] = tested on: A-172; assay: Inhibition of the proliferation of tumor cells (MTT test), A-172; type: cell-based, human
Procedure: as §1, §2, §3

[4] = tested on: C 6; assay: Inhibition of the proliferation of tumor cells (MTT test), C 6; type: cell-based, rat
Procedure: as §1, §2, §3

[5] = biological target: T1, Human DHODH (spleen) (Homo sapiens, UniProt Q02127); assay: Human DHODH (spleen) enzyme activity; type: biochemical
T1 construct: Human DHODH (spleen) enzyme activity; from tissue; host or cells: human spleen

[6] = tested on: L1210; assay: Inhibition of the proliferation of tumor cells (MTT test), L1210; type: cell-based; conditions: Table 2; L1210, leukemia (mouse)
Procedure: as §1, §2, §3

[7] = tested on: LoVo cells; assay: MTT test on LoVo cells with added uridine; type: cell-based, human; conditions: for IC50: Homo sapiens, LoVo, Table 3
Procedure: as §2, §3
The procedure is as in Example 6; uridine is additionally added to the batches.

[8] = tested on: pyrimidine and purine nucleotides; conditions: cited from earlier work
[9] = tested on: in vitro cell lines; conditions: Peters et al., 1987; cited from earlier work
[10] = tested on: plasma uridine; conditions: clinical investigations, cited from earlier work
[11] = Homo sapiens, Table 4, read-out: LoVo (tested as described in Example 6, MTT test)
[12] = Homo sapiens, HUVEC, Table 4, HUVEC, read-out: HUVEC (tested as described in Example 6, MTT test)
[13] = Homo sapiens, A 172, Table 4, A172, read-out: A172 (tested as described in Example 6, MTT test)
[14] = Rattus norvegicus, C6, Table 4, C 6, read-out: C 6 (tested as described in Example 6, MTT test)
[15] = human DHODH (spleen), read-out: DHODH IC50
[16] = Homo sapiens, Table 2, colonic carcinoma, no uridine, read-out: MTT Test IC50
[17] = Homo sapiens, Endothelial cell, Table 2, HUV-EC-C, endothelial cell, read-out: MTT Test IC50
[18] = Homo sapiens, A 172, Table 2, A-172, glioblastoma, read-out: MTT Test IC50
[19] = Rattus norvegicus, C6, Table 2, C 6, rat glioblastoma, read-out: MTT Test IC50

T1 sequence (Q02127 whole entry): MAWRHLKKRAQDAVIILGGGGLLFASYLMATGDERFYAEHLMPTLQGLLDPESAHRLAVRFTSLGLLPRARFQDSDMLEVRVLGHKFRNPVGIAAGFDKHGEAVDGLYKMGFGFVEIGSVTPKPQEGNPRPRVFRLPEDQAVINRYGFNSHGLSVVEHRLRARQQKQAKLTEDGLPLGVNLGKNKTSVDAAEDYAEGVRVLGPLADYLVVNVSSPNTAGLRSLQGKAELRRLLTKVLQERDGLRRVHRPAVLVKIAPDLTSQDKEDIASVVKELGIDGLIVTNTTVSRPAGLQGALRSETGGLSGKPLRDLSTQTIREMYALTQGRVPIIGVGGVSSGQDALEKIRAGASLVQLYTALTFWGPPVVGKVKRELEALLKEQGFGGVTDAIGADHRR

Compound | IC50 [1, 11] [µM] | IC50 [2, 12] [µM] | IC50 [3, 13] [µM] | IC50 [4, 14] [µM] | also measured
C=CCCC(O)=C(C#N)C(=O)Nc1ccc(C)c(C)c1 [Compound 21] | 27 | 339 | 63 | 69 | 
N#CC(C(=O)Nc1ccc(C#N)cc1)=C(O)C1CC1 [Compound 2, 2-Cyano-3-cyclopropyl-3-hydroxyacrylic acid (4-cyanophenyl)amide sodium salt] | 392 | 360 | 169 | 20 | IC50 [5, 15]: 0.625 µM; IC50 [1, 16]: 392 µM; IC50 [2, 17]: 360 µM; IC50 [3, 18]: 169 µM; IC50 [6]: 6.1 µM; IC50 [4, 19]: 20 µM; IC50 ([7]; uridine 0 μM): 359 µM; IC50 ([7]; uridine 1000 μM): 560 µM
C=CCCC(O)=C(C#N)C(=O)Nc1ccc(C(F)(F)F)cc1 [Compound 17] | 75 | 127 | 55 | 186 | 
N#CC(C(=O)Nc1ccc(C(F)(F)F)cn1)=C(O)C1CC1 [Compound 23] | 75 | > 400 | 94 | 7 | 
Cc1c(-c2ccc(-c3ccccc3F)cc2)nc2ccc(F)cc2c1C(=O)O [Brequinar, reference compound] |  |  |  |  | IC50 [1, 16]: 0.388 µM; IC50 [2, 17]: 9.4 µM; IC50 [3, 18]: 0.2 µM; IC50 [6]: 1 µM; IC50 [4, 19]: 9 µM; IC50 ([7]; uridine 0 μM): 0.388 µM; IC50 ([7]; uridine 1000 μM): 129 µM; change of the IC50 value on the LoVo cell line on addition of increasing amounts of uridine ([7]; MTT test, in words): massive increase in the IC50 value; depletion of nucleotides ([8]; Schwartsmann et al., 1988): depletion of pyrimidine ribo- and deoxyribonukleotides, but not of purine nucleotides; depletion of dTTP and dCTP ([8]; relative to UTP and CTP, uridine addition): proportional to that of UTP and CTP and can be prevented by the addition of uridine; inhibition of growth of in vitro cell lines, reversal by nucleosides [9]: can be abolished by addition of uridine or cytidine, but not by deoxythymidine or deoxycytidine; plasma uridine values ([10]; Peters et al., 1988): significantly lowers the plasma uridine values; correlation of in vivo uridine level effects with bone marrow and gastrointestinal tract toxicity [10]: correlated with the bone marrow and gastrointestinal tract toxicity
N#CC(C(=O)Nc1ccc(-c2ccccc2)cc1)=C(O)C1CC1 [Compound 24] |  |  |  |  | IC50 ([1]; Homo sapiens, read-out: LoVo (tested as described in Example 6, MTT test)): 6 µM; IC50 ([2]; Homo sapiens, HUVEC, read-out: HUVEC (tested as described in Example 6, MTT test)): 74 µM; IC50 ([3]; Homo sapiens, A 172, read-out: A172 (tested as described in Example 6, MTT test)): 22 µM; IC50 ([4]; Rattus norvegicus, C6, read-out: C 6 (tested as described in Example 6, MTT test)): 34 µM
C#CCCC(O)=C(C#N)C(=O)Nc1ccc(Cl)cn1 [Compound 27] | 153 | > 400 | 142 | 126 | 
Cc1cc(Cl)ccc1Oc1ccc(NC(=O)C(C#N)=C(O)C2CC2)cc1 [Compound 16] | 7 | 299 | 17 | 36 | 
C#CCCC(O)=C(C#N)C(=O)Nc1ccc(C(F)(F)F)cc1 [Compound 1, N-(4-Trifluoromethylphenyl)-2-cyano-3-hydroxyhept-2-en-6-yne-carboxamide sodium salt] | 137 | 164 | 78 | 68 | IC50 [5]: 0.292 µM; IC50 [1, 16]: 137 µM; IC50 [2, 17]: 164 µM; IC50 [3, 18]: 78 µM; IC50 [6]: 9.1 µM; IC50 [4, 19]: 68 µM; IC50 ([7]; uridine 0 μM): 168 µM; IC50 ([7]; uridine 1000 μM): 278 µM
N#CC(C(=O)Nc1ccc(Br)cc1)=C(O)C1CC1 [Compound 7] | 37 | 267 | 37 | 11 | 
N#CC(C(=O)Nc1ccc(Cl)cc1)=C(O)C1CC1 [Compound 6] | 24 | > 400 | 25 | 11 | 
N#CC(C(=O)Nc1ccc(Oc2ccc(F)cc2)cc1)=C(O)C1CCCC1 [Compound 20] | 119 | > 400 | 158 | 182 | 
N#CC(C(=O)Nc1ccc(Oc2ccccc2)cc1)=C(O)C1CC1 [Compound 8] | 13 | 138 | 28 | 18 | 
C=CCC(O)=C(C#N)C(=O)Nc1ccc(C(F)(F)F)cc1 [Compound 11] | 160 | 187 | 55 | 57 | 
N#CC(C(=O)Nc1ccc(SC(F)(F)F)cc1)=C(O)C1CC1 [Compound 15] | 21 | 98 | 13 | 2 | 
C=CCC(O)=C(C#N)C(=O)Nc1ccc(SC(F)(F)F)cc1 [Compound 19] | 171 | 135 | 118 | 32 | 
N#CC(C(=O)Nc1ccc(OC(F)(F)F)cc1)=C(O)C1CC1 [Compound 10] | 21 | 186 | 25 | 4 | 
CC=CC=CC(O)=C(C#N)C(=O)Nc1ccc(C(F)(F)F)cc1 [Compound 26] | 146 | 378 | 200 | 24 | 
C=CCC(O)=C(C#N)C(=O)Nc1ccc(F)cc1 [Compound 22] | 149 | > 400 | > 400 | 103 | 
Cc1cc(NC(=O)C(C#N)=C(O)C2CC2)ccc1F [Compound 13] | 15 | > 400 | 32 | 13 | 
N#CC(C(=O)Nc1ccc(Oc2ccc(F)cc2)cc1)=C(O)C1CCC1 [Compound 18] | 110 | 159 | 190 | 84 | 
C=CC(O)=C(C#N)C(=O)Nc1ccc(C(F)(F)F)cc1 [Compound 9] | 400 | > 400 | 193 | 21 | 
CC(C)=CCCC(O)=C(C#N)C(=O)Nc1ccc(C(F)(F)F)cc1 [Compound 25] | 306 | 301 | 95 | 87 | 
Cc1cc(NC(=O)C(C#N)=C(O)C2CC2)ccc1C(F)(F)F [Compound 12] | 55 | 322 | 43 | 6 | IC50 [5, 15]: 0.539 µM
Cc1cc(NC(=O)C(C#N)=C(O)C2CC2)ccc1C(F)(F)F [Compound 14] |  |  |  |  | IC50 ([1]; Table 4, read-out: LoVo (tested as described in Example 6, MTT test)): 61 µM; IC50 ([2]; Table 4, HUVEC, read-out: HUVEC (tested as described in Example 6, MTT test)): 197 µM; IC50 ([3]; Table 4, A172, read-out: A172 (tested as described in Example 6, MTT test)): 58 µM; IC50 ([4]; Table 4, C 6, read-out: C 6 (tested as described in Example 6, MTT test)): 7 µM
N#CC(C(=O)Nc1ccc(C(F)(F)F)cc1)=C(O)C1CC1 [Compound 5] | 34 | 94 | 30 | 5 | 
